Experimental data taken from ChEMBL document CHEMBL2074362, “Lithocholic acid decreases expression of bile salt export pump through farnesoid X receptor antagonist activity” (J Biol Chem, 2002).

Target: Bile salt export pump (Homo sapiens, UniProt O95342)
Assay: TP_TRANSPORTER: Taq-Man PCR in vitro, primary hepatocytes
Type: functional, cell-based, Hepatocyte

Sequence of Bile salt export pump (O95342 whole entry): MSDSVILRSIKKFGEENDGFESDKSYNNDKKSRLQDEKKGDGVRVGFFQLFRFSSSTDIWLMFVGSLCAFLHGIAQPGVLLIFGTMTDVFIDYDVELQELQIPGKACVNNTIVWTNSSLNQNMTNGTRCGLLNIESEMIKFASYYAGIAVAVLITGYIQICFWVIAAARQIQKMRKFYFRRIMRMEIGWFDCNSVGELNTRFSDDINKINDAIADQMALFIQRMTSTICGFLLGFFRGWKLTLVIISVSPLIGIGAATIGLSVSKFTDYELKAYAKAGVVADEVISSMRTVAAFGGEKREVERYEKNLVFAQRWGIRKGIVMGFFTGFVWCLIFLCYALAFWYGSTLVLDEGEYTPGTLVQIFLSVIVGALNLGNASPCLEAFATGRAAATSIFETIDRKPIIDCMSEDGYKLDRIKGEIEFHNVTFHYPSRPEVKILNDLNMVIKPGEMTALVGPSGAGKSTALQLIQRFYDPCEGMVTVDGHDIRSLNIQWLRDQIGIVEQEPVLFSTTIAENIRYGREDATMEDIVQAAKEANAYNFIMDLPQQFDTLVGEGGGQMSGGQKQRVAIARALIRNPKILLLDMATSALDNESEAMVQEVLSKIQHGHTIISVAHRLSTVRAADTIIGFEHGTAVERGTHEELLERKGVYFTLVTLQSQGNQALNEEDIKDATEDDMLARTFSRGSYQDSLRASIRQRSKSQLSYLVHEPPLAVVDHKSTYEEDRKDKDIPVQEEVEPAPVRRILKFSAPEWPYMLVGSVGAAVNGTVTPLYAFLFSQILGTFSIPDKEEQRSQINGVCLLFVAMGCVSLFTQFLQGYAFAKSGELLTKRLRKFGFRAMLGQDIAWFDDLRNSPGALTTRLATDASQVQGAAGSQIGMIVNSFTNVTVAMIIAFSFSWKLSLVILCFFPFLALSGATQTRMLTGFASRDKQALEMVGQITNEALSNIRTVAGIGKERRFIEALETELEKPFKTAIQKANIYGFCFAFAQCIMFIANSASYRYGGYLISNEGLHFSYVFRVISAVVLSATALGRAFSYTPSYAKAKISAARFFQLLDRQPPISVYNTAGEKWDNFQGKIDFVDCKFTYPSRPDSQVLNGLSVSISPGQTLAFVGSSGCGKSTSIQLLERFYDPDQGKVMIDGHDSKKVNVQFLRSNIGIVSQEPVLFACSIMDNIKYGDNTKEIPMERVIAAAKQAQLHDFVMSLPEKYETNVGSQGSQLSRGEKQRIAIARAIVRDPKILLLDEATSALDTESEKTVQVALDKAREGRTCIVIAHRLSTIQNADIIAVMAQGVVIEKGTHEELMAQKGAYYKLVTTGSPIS

CC(C)c1onc(-c2c(Cl)cccc2Cl)c1COc1ccc(/C=C/c2cccc(C(=O)O)c2)c(Cl)c1 was tested, and the Activity was “inducer [+]”.
